How the values were obtained:
Format in all cases: cell-based
[1] = biological target: human EGFR exon 20 insertion ASV (V769_D770insASV) (Homo sapiens (Human), UniProt P00533, INS769ASV); test: Ba/F3-EGFR-Exon20-ASV cell anti-proliferative assay (CellTiter 96 MTS, 72 h); details: Ba/F3-EGFR-Exon20-ASV cells;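 further: Ba/F3 cells bearing the EGFR exon 20 ASV insertion, a line able to proliferate without IL-3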
Description: Ba/F3 cells expressing EGFR exon 20 insertions (named Ba/F3-EGFR-Exon20-NPG or Ba/F3-EGFR-Exon20-ASV) can proliferate in the absence of IL-3. The anti-proliferative activity of compounds were determined as follows: BaF3-EGFR-Exon20 cells (NPG or ASV) seeded in 96 well plates (2500 cells/well) were treated with test compound (dissolved in DMSO) at a series of concentrations (4-fold dilution, top concentration: 10,000 nM). The plates were incubated for 72 h in a 37° C. incubator with 5% CO2, and the number of viable cells in each well were measured indirectly by CellTiter 96® Aqueous One Solution Cell Proliferation Assay (Promega) This assay is a colorimetric method for determining the number of viable cells through measurement of their metabolic activity by detection of enzymatic conversion of tetrazolium salts into blue formazan derivatives. Reagent (20 μL) was added into each well, and the plates were returned to the incubator for 2 h. The absorbance in each well was then measured at 490 nm using an Envision plate reader (Perkin Elmer).

[2] = biological target: human EGFR exon 20 insertion NPG (H773_V774insNPG) (Homo sapiens, UniProt P00533, INS773NPG, cells depend on it); test: Ba/F3-EGFR-Exon20-NPG cell anti-proliferative assay (CellTiter 96 MTS, 72 h); details: read-out: EGFR exon 20 NPG insertion IC50
human EGFR exon 20 insertion NPG (H773_V774insNPG), sequence (P00533 with tags, fused parts or gaps INS773NPG limits assumed): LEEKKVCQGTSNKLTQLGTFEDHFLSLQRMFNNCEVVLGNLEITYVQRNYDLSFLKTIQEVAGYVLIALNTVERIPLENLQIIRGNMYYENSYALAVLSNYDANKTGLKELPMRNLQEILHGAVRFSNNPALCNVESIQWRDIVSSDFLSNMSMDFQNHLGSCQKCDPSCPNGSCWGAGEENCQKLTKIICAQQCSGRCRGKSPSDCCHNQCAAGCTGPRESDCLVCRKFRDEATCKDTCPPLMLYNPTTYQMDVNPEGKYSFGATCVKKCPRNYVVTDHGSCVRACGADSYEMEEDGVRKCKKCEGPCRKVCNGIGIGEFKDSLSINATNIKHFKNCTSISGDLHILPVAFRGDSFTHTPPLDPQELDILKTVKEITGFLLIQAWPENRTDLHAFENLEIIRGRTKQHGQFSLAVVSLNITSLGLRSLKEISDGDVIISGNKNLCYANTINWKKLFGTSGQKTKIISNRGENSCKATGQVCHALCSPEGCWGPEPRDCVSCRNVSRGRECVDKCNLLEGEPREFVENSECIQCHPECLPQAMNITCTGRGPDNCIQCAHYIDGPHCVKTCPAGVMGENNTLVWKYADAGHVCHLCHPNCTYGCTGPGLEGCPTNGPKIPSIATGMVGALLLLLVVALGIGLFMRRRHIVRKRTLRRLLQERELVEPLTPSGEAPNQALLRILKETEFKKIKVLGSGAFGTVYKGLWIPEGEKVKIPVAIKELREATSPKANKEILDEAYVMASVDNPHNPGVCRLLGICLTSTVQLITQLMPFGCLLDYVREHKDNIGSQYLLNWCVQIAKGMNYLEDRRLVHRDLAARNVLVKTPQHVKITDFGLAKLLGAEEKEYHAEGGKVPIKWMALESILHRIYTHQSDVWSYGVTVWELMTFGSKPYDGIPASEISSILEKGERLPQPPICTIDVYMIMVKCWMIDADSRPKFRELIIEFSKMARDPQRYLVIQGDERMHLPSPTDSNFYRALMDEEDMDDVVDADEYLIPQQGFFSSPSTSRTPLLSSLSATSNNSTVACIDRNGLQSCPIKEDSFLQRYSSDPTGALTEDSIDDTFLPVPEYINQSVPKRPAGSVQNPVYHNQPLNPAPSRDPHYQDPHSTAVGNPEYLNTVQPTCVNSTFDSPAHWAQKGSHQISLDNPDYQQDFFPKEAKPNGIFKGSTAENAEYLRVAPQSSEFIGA

[3] = biological target: human EGFR E746-A750 deletion and T790M Mutation (DT) (Homo sapiens (Human), UniProt P00533, DEL746-750/T790M); test: Ba/F3-EGFR-Del/T790M cell anti-proliferative assay (CellTiter 96 MTS, 72 h); details: Ba/F3-EGFR-Del/T790M cells; read-out: EGFR exon 19 deletion and T790M mutation IC50
human EGFR E746-A750 deletion and T790M Mutation (DT), sequence (P00533 other isoform, or with tags, fused parts or gaps T790M/del E746-A750): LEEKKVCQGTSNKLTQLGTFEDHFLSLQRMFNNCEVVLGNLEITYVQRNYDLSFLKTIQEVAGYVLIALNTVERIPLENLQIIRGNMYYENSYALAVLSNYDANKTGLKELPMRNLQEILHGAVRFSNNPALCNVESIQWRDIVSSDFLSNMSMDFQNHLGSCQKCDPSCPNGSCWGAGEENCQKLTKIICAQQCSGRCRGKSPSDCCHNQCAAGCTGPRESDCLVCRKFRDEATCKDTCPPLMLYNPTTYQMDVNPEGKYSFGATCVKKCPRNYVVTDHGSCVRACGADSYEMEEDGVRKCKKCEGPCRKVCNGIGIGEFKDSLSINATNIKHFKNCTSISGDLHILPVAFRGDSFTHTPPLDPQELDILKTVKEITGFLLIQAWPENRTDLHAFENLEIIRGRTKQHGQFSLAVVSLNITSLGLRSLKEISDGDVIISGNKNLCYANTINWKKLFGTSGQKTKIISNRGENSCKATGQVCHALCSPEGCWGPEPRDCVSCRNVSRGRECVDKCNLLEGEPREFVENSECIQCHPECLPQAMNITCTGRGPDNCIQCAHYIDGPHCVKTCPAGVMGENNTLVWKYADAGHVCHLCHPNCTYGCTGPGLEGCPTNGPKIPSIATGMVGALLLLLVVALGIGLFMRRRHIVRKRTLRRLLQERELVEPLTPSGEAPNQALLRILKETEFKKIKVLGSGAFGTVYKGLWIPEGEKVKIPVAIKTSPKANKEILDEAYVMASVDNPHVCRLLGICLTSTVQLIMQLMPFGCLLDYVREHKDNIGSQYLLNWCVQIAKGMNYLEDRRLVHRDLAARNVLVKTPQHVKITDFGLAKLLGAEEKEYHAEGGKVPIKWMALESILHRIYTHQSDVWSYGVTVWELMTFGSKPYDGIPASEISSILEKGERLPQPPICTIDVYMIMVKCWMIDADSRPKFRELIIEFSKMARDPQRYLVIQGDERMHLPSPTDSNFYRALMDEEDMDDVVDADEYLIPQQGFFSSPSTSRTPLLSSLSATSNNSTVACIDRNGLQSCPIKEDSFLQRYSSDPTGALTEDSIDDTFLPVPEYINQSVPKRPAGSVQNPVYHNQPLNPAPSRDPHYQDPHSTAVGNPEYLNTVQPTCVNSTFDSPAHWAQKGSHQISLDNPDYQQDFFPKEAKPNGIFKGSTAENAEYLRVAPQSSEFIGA

[4] = biological target: human EGFR L858R and T790M double mutation (LT) (Homo sapiens (Human), UniProt P00533, L858R/T790M); test: Ba/F3-EGFR L858R/T790M cell anti-proliferative assay (CellTiter 96 MTS, 72 h); details: Ba/F3-EGFR L858R/T790M cells; read-out: EGFR exon 21 L858R and T790M mutation IC50;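 further: Ba/F3 cells carrying the EGFR L858R/T790M double mutant are able to grow without IL-3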
human EGFR L858R and T790M double mutation (LT), sequence (P00533 25-1210 T790M/L858R): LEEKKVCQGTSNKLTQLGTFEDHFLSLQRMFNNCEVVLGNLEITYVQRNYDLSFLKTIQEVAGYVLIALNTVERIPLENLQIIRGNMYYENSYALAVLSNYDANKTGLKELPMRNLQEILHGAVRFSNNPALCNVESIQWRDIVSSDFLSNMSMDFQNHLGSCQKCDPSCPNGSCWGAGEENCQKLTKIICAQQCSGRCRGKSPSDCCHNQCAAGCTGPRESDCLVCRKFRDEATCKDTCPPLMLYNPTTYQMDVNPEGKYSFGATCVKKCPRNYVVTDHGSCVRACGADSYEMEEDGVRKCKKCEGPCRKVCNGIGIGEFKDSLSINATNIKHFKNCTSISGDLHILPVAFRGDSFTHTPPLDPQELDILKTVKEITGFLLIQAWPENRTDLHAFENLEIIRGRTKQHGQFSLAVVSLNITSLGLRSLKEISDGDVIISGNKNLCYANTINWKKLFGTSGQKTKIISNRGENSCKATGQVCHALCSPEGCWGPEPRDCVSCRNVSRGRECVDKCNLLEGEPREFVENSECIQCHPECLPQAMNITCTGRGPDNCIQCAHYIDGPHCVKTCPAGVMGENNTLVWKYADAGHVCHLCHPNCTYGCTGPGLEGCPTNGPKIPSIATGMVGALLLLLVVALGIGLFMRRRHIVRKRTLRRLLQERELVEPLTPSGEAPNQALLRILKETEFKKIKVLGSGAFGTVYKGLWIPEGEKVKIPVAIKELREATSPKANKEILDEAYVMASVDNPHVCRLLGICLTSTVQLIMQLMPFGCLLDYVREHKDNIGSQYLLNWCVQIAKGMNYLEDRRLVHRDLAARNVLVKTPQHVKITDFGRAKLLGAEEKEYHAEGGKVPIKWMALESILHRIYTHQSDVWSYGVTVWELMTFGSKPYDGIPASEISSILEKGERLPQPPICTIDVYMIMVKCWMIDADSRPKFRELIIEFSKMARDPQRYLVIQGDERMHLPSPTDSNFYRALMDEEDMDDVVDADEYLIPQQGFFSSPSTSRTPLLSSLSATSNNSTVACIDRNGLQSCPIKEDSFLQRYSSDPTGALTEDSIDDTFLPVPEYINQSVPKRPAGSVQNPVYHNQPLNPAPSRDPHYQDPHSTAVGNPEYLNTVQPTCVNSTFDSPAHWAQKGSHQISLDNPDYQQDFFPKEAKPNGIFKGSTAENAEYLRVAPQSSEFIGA
Description: An expression vector, pLVX-IRES puro (Clontech) coding for human EGFR L858R and T790M double mutation, was transfected into HEK293 cells by the Trans-Lentiviral ORF Packaging System (Thermo Scientific), to produce virus encoding EGFR L858R and T790M double mutations. […] Ba/F3 cells expressing EGFR L858R and T790M double mutation (named Ba/F3-EGFR L858R/T790M) can proliferate in the absence of IL-3. The anti-proliferative activity of compounds was determined as follows: BaF3-EGFR L858R/T790M cells seeded in 96 well plates (2500 cells/well) were treated with test compound (dissolved in DMSO) at a series of concentrations (4-fold dilution, top concentration: 10,000 nM). The plates were incubated for 72 h in a 37° C. incubator with 5% CO2, and the number of viable cells in each well were measured indirectly by CellTiter 96® Aqueous One Solution Cell Proliferation Assay (Promega; this assay is a colorimetric method for determining the number of viable cells through measurement of their metabolic activity by detection of enzymatic conversion of tetrazolium salts into blue formazan derivatives). Reagent (20 μL) was added into each well, and the plates were returned to the incubator for 2 h. The absorbance in each well was then measured at 490 nm using an Envision plate reader (Perkin Elmer).

[5] = biological target: Her2 exon 20 YVMA insertion (A775_G776ins YVMA) (Homo sapiens (Human), UniProt P04626, INS775YVMA); test: Ba/F3-Her2 Exon20 YVMA cell anti-proliferative assay (CellTiter 96 MTS, 72 h); details: Ba/F3-Her2 Exon20 YVMA cells
Her2 exon 20 YVMA insertion (A775_G776ins YVMA), sequence (P04626 other isoform, or with tags, fused parts or gaps ins YVMA behind 775): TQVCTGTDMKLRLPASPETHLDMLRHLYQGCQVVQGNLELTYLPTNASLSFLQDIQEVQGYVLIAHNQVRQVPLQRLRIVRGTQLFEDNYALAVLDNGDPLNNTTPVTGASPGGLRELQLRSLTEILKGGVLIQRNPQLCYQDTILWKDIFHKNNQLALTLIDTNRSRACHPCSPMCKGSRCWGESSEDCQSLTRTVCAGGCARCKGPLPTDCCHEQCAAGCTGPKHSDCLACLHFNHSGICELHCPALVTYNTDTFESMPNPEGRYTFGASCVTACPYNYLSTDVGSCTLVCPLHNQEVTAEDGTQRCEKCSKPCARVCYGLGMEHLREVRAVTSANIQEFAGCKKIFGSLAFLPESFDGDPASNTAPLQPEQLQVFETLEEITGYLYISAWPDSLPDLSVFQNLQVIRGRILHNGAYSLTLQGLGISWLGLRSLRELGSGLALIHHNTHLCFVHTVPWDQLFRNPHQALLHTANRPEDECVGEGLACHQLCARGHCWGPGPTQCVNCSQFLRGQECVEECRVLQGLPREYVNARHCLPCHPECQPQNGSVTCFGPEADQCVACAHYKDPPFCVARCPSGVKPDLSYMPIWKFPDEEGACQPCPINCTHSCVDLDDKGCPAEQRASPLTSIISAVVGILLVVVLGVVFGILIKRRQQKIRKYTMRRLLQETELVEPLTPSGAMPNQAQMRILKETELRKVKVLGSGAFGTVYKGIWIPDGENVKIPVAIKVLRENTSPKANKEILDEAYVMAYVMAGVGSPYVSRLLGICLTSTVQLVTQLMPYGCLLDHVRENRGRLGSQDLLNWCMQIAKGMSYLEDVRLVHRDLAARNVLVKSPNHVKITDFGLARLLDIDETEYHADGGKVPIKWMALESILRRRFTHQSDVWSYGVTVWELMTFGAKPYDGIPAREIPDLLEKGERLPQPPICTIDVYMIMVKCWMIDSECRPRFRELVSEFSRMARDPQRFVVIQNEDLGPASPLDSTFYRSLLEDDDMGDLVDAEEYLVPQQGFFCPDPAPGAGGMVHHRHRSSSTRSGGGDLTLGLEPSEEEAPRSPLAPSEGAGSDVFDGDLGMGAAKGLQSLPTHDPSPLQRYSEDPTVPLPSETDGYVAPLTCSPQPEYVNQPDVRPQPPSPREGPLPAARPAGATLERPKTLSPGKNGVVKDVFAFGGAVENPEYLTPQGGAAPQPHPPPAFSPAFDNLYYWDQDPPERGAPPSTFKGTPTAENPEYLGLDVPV
Description: Ba/F3 cells expressing Her2 Exon20 YVMA insertions (named Ba/F3-Her2 Exon20 YVMA) can proliferate in the absence of IL-3.

Measured: IC50

C=CC(=O)Nc1cc(Nc2ncc(C(=O)OC(C)C)c(-c3cn(CC)c4ccccc34)n2)c(OC)cc1N(C)CCN(C)C [Example 77, isopropyl 2-((5-acrylamido-4-((2-(dimethylamino)ethyl)(methyl)amino)-2-methoxyphenyl)amino)-4-(1-ethyl-1H-indol-3-yl)pyrimidine-5-carboxylate]
< 100 nM: all assays above

Reference: patent US10227342B2 (ARIAD PHARMACEUTICALS, INC., priority 2014, dated 2019)
